What was measured:
Type in all cases: cell-based, human
[1] = tested on: HEK293 TRplp-fLUC and TRdm-fLUC subclones; assay: Cytotoxicity assay by immunofluorescence of fLUC protein; conditions: 12 hr
Excerpt: To examine TR-mediated translation from the TR-fLUC cassettes, the translated fLUC protein requires immunolabeling with fluorescent antibodies. In this study, HEK293 cells transformed with the CMV-fLUC, TRplp-fLUC or TRdm-fLUC expression cassettes are visualized following immunodetection of the fLUC protein using a primary anti-fLUC antibody (Sigma) and a species-specific rhodamine-labeled secondary antibody (Kirkegaard and Perry Laboratories, Inc.). DAPI labeling of nuclear DNA is a well known procedure in the art and was used to label nuclei.
Forty hours prior to toxin exposure, 300,000 cells (HEK293, HEK293 CMV-fLUC, HEK293 TRplp-fLUC subclone #3, HEK293 TRplp-fLUC subclone #17, HEK293 TRdm-fLUC subclone #12, or HEK293 TRdm, fLUC subclone #45) were plated on flame sterilized glass coverslips in a 12-well tray. Cells are cultured in complete DMEM medium. Fresh medium supplemented with 6.7 micromolar calcium ionophore A23187 is applied and slides collected at 12 hr. […] After this, the coverslips are washed in 1×PBS, labeled with DAPI (30 sec, RT), washed in 1×PBS, and mounted for fluorescence microscopy.
In untreated cell cultures, the frequency of fLUC-positive cells ranged from 2.4-7.2%, which is 1-3 times higher than the normal frequency of nonviable cells, as determined by Trypan blue staining. […]

[2] = tested on: HT1080 cells transduced with rBAC-TRdm-EYFP virions; assay: Cytotoxic event assay using rBAC-TRdm-EYFP gene delivery, fluorescence microscopy; conditions: 5 μM
Experimental: HT1080 cells are plated in 6-well trays and allowed to grow until 70-80% confluent. Two sets of HT1080 cells are transduced with rBAC-TRdm-EYFP virions (multiplicity of infection of 10 pfu/cell and 25 pfu/cell) for 24 hr and then treated with medium containing 5 μM calcium ionophore A23187 for 13.5 hr and 23 hr. At this time, untreated and treated cells are processed and examined by fluorescence microscopic analysis as described above.

[3] = tested on: HEK293 TRplp-fLUC subclone #3 and HEK293 TRdm-fLUC subclone #45; assay: Microplate reader temporal response, lysed cell luciferase assay; conditions: 6.7 micromolar
Experimental: (§1) For this example, HEK293 cells expressing the TRplp-EYFP, TRdm-EYFP, TRplp fLUC and TRdm-fLUC expression cassettes are evaluated using a microplate reader. To quantitate the TR translational response, 24,000 cells are plated in a 96-well microtiter plates and allowed to grow for about 40 hr to achieve the proper cell density prior to incubation with a toxic agent. Each well is cultured with complete DMEM medium containing either no toxin or a defined concentration of toxin and incubated at 37 C for specific time periods. At that time, fluorescence or chemiluminescence on a FLUOstar Optima (BMG Labtech) microplate reader is used measure TR-ORF response.
(§2) For a lysed cell assay, cells are cultured as above, but in regular flat bottom 96-well trays. After toxin incubation, the 96-well plates are centrifuged as above. The media is removed, replaced with 50 microliters of Cell Lysis Buffer (25 mM Tris-phosphate (pH7.8), 10% glycerol, 1% TritonX-100, 1 mg/ml BSA, 2 mM EGTA and 2 mM DTT) and incubated for 10 min at RT. Cell lysis is verified using a phase contrast microscope, and the lysates transferred to a white bottom 96-well tray. Luminescence is developed by injection of 5 microliters of D-luciferin solution dissolved in Reaction Buffer (25 mM Glycylglycine (pH 7.8), 15 mM MgSO4, 4 mM EDTA, 15 mM Potassium phosphate, 1 mM DTT, 1 mM Coenzyme A, 6.7 mM ATP and 3.35 mM D-luciferin). After 4 sec with shaking, luminescence values were measured using the lens filter at gains of 2000-3000.
Temporal response assays are used to define the timing of TR-regulated translation during incubation in toxic levels of a cytotoxic agent. HEK293 TRplp-fLUC subclone #3 and HEK293 TRdm-fLUC subclone #45 are cultured in 6.7 micromolar calcium ionophore A23187 for various times (0 hr, 1.5 hr, 3 hr, 4.5 hr, 6 hr, 7.5 hr, 9 hr, 10.5 hr, 12 hr and 13.5 hr) and analyzed as described above using a lysed cell luciferase assay (FIG. 11).

[4] = tested on: HEK293 cell pools expressing the fLUC-TRplp-EYFP, fLUC-TRdm-EYFP, pcuLf-TRplp-EYFP or pcuLf-TRdm-EYFP expression cassettes; assay: Cytotoxicity assay by Western blot, bicistronic TR cassettes; conditions: toxic doses
[5] = tested on: HEK293 TRplp-fLUC (subclone #3) and TRdm-fLUC (subclone #45) cells; assay: Microplate reader dose response, lysed cell luciferase assay; conditions: 12 hr
Experimental: as §1, §2
Dose response assays are necessary to define toxic concentrations of candidate cytotoxic agents. To establish a TR-mediated cellular response and identify a TR effective dose, HEK293 cells transformed with the TRplp-fLUC (subclone #3) and TRdm-fLUC (subclone #45) expression cassettes are subjected to a range of subtoxic to toxic concentrations of the calcium ionophore A23187 (0, 1 nM, 10 nM, 100 nM, 1 μM, 2 μM, 4 μM, 6 μM, 8 μM, 10 μM) for 12 hr and analyzed as described above using a lysed cell luciferase assay (FIG. 10).

HEK293 cells = assay: Trypan blue staining of HEK293 cells treated with toxic agents; conditions: 5-6.7 micromolar, within 24 hr

CNc1ccc2oc(C[C@H]3O[C@@]4(CC[C@H]3C)O[C@H]([C@H](C)C(=O)c3ccc[nH]3)[C@H](C)C[C@H]4C)nc2c1C(=O)O [calcium ionophore A23187]
increase in number of fLUC positive cells compared to untreated samples ([1]; HEK293 TRdm-fLUC subclone #12, 6.7 micromolar): 3640%
increase in number of fLUC positive cells compared to untreated samples ([1]; HEK293 TRdm-fLUC subclone #45, 6.7 micromolar): 1440%
increase in EYFP positive cells compared to infected but untreated cell samples ([2]; 13.5 hr, 10 pfu/cell): 3344%
increase in EYFP positive cells compared to infected but untreated cell samples ([2]; 13.5 hr, 25 pfu/cell): 4925%
decrease in the number of attached cells ([2]; 23 hr): more than 50%
increase in EYFP positive cells compared to infected but untreated cell samples ([2]; 23 hr, 10 pfu/cell): 725%
increase in EYFP positive cells compared to infected but untreated cell samples ([2]; 23 hr, 25 pfu/cell): 875%
time up to which translational activity increases linearly, values adjusted to HEK293 CMV-fLUC cells ([3]; ratio to CMV-fLUC): 12 h
time post-incubation by which significant TR-specific translation is detected ([3]; raw luciferase numbers): ≤ 1.5 h
time post-incubation up to which translational activity increases linearly, then plateau ([3]; raw luciferase numbers): 9 h
EYFP translation in cell pools expressing the bicistronic TR cassettes (Western blot, FIG. 4) [4]: induce EYFP translation
fLuc activity at the 8-10 μM toxin concentrations ([5]; 8-10 μM): decline in fLuc activity
concentration of peak in fLUC values ([5]; raw luciferase numbers): 6 µM
concentration at which TR-mediated translation is initially detected ([5]; raw luciferase numbers, each cassette): 1 µM
TR-specific translational activity at lower subtoxic doses ([5]; below 1 μM (1 nM, 10 nM, 100 nM)): no apparent TR-specific translational activity
cell death in HEK293 cells as determined by Trypan blue staining (HEK293 cells): complete cell death

Reference: patent US9322034B2, “Compositions and methods for detecting and modulating cell death by a translation regulated gene expression system” (Wayne State University, priority 2007, dated 2016)
